Source: article PMC9316761, “Thiosemicarbazide-Substituted Coumarins as Selective Inhibitors of the Tumor Associated Human Carbonic Anhydrases IX and XII” (Molecules, 2022)

What was measured:
hCA XII = target: T1, hCA XII (Homo sapiens, UniProt O43570); assay: stopped flow CO2 hydrase assay, hCA XII; type: biochemical; conditions: for fold more effective on hCA XII than 6-substituted counterpart: 7-substituted versus 6-substituted regioisomer (20a, 21a)
T1 construct: made in house

hCA I = target: T2, hCA I (Homo sapiens, UniProt P00915); assay: stopped flow CO2 hydrase assay, hCA I; type: biochemical; conditions: mean from 3 assays, errors ±5–10%; 6 h preincubation
T2 construct: made in house
T2 sequence (P00915 whole entry): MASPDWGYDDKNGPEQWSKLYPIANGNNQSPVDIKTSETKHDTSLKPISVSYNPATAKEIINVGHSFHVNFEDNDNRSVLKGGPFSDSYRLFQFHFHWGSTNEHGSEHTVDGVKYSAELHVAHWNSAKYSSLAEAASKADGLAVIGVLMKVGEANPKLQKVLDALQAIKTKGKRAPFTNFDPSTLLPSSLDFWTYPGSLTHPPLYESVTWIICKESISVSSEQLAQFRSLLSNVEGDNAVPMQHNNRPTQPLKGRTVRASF

hCA IX = target: T3, hCA IX (Homo sapiens, UniProt Q16790); assay: stopped flow CO2 hydrase assay, hCA IX; type: biochemical; conditions: for Ki: mean from 3 assays, errors ±5–10%, 6 h preincubation; for fold loss of hCA IX inhibition potency relative to 14a: Ki ratio versus 14a; for fold increase of hCA IX Ki relative to the 4-iodo derivative 18a: Ki ratio versus 18a; for fold more potent on hCA IX than 6-substituted counterpart: 7-substituted versus 6-substituted regioisomer (20a, 22a)
T3 construct: made in house

hCA II = target: T4, hCA II (Homo sapiens, UniProt P00918); assay: stopped flow CO2 hydrase assay, hCA II; type: biochemical; conditions: mean from 3 assays, errors ±5–10%; 6 h preincubation
T4 construct: made in house

T1 sequence (O43570 25-354): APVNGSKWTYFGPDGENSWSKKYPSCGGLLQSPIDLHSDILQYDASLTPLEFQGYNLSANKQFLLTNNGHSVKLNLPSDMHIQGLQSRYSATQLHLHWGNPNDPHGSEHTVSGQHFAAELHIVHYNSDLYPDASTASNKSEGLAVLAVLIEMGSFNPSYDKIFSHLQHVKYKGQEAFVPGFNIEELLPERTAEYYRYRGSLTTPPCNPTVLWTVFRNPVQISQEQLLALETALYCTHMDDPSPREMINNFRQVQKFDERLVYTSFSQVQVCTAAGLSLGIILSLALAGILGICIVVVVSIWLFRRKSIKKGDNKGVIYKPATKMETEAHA

Q: For O=C(COc1ccc2oc(=O)ccc2c1)NNC(=S)Nc1ccccc1 [Compound 14a, N-Phenyl-2-(2-((2-oxo-2H-chromen-6-yl)oxy)acetyl)hydrazine-1-carbothioamide], which melting point is on record?
A: 173 to 175 °C

Q: What about the Ki (hCA XII) of the same compound?
A: 739 nM

Q: What about the Ki (hCA I) of the same compound?
A: > 10000 nM

Q: What about the “fold more potent on hCA IX than on hCA XII” value (hCA IX; Ki hCA XII / Ki hCA IX) of the same compound?
A: 84 fold

Q: What about the Ki (hCA IX) of the same compound?
A: 8.8 nM

Q: What about the Ki (hCA II) of the same compound?
A: > 10000 nM

Q: For O=C(COc1ccc2ccc(=O)oc2c1)NNC(=S)Nc1ccccc1 [Compound 14b, N-Phenyl-2-(2-((2-oxo-2H-chromen-7-yl)oxy)acetyl)hydrazine-1-carbothioamide], which melting point is on record?
A: 155 to 156 °C

Q: What about the Ki (hCA XII) of the same compound?
A: 743 nM

Q: And the Ki (hCA I)?
A: > 10000 nM

Q: And the “fold loss of hCA IX inhibition potency relative to 14a” value (hCA IX)?
A: 5.2 fold

Q: What about the Ki (hCA IX) of the same compound?
A: 46 nM

Q: And the Ki (hCA II)?
A: > 10000 nM

Q: For Cc1ccc(NC(=S)NNC(=O)COc2ccc3oc(=O)ccc3c2)cc1 [Compound 15a, N-(p-Tolyl)-2-(2-((2-oxo-2H-chromen-6-yl)oxy)acetyl)hydrazine-1-carbothioamide], which melting point is on record?
A: 167 to 169 °C

Q: What about the Ki (hCA XII) of the same compound?
A: 709 nM

Q: And the Ki (hCA I)?
A: > 10000 nM

Q: And the “fold loss of hCA IX inhibition potency relative to 14a” value (hCA IX)?
A: 26.6 fold

Q: What about the Ki (hCA IX) of the same compound?
A: 234 nM

Q: What about the Ki (hCA II) of the same compound?
A: > 10000 nM

Q: With Cc1ccc(NC(=S)NNC(=O)COc2ccc3ccc(=O)oc3c2)cc1 [Compound 15b, N-(p-Tolyl)-2-(2-((2-oxo-2H-chromen-7-yl)oxy)acetyl)hydrazine-1-carbothioamide] as the compound, how does the melting point read?
A: 147 to 149 °C (dec.)

Q: And the Ki (hCA XII)?
A: 684 nM

Q: And the Ki (hCA I)?
A: > 10000 nM

Q: What about the “fold increase of hCA IX Ki relative to 14b” value (hCA IX; Ki ratio versus 14b) of the same compound?
A: 1.7 fold

Q: What about the Ki (hCA IX) of the same compound?
A: 78 nM

Q: And the Ki (hCA II)?
A: > 10000 nM

Q: Which results are given for O=C(COc1ccc2oc(=O)ccc2c1)NNC(=S)Nc1ccc(Cl)cc1 [Compound 16a, N-(4-Chlorophenyl)-2-(2-((2-oxo-2H-chromen-6-yl)oxy)acetyl)hydrazine-1-carbothioamide]?
A: melting point: 163 to 165 °C; Ki (hCA XII): 608 nM; Ki (hCA I): > 10000 nM; Ki (hCA IX): 48 nM; Ki (hCA II): > 10000 nM

Q: Which results are given for O=C(COc1ccc2ccc(=O)oc2c1)NNC(=S)Nc1ccc(Cl)cc1 [Compound 16b, N-(4-Chlorophenyl)-2-(2-((2-oxo-2H-chromen-7-yl)oxy)acetyl)hydrazine-1-carbothioamide]?
A: melting point: 202 to 203 °C; Ki (hCA XII): 866 nM; Ki (hCA I): > 10000 nM; Ki (hCA IX): 55 nM; Ki (hCA II): > 10000 nM

Q: With O=C(COc1ccc2oc(=O)ccc2c1)NNC(=S)Nc1ccc(F)cc1 [Compound 17a, N-(4-Fluorophenyl)-2-(2-((2-oxo-2H-chromen-6-yl)oxy)acetyl)hydrazine-1-carbothioamide] as the compound, how does the melting point read?
A: 181 to 183 °C

Q: What about the Ki (hCA XII) of the same compound?
A: 494 nM

Q: And the Ki (hCA I)?
A: > 10000 nM

Q: What about the Ki (hCA IX) of the same compound?
A: 39 nM

Q: What about the Ki (hCA II) of the same compound?
A: > 10000 nM

Q: What does the source list for O=C(COc1ccc2ccc(=O)oc2c1)NNC(=S)Nc1ccc(F)cc1 [Compound 17b, N-(4-Fluorophenyl)-2-(2-((2-oxo-2H-chromen-7-yl)oxy)acetyl)hydrazine-1-carbothioamide]?
A: melting point: 119 to 121 °C (dec.); Ki (hCA XII): 745 nM; Ki (hCA I): > 10000 nM; Ki (hCA IX): 64 nM; Ki (hCA II): > 10000 nM

Q: With O=C(COc1ccc2oc(=O)ccc2c1)NNC(=S)Nc1ccc(I)cc1 [Compound 18a, N-(4-Iodophenyl)-2-(2-((2-oxo-2H-chromen-6-yl)oxy)acetyl)hydrazine-1-carbothioamide] as the compound, how does the melting point read?
A: 160 to 162 °C

Q: And the Ki (hCA XII)?
A: 8.4 nM

Q: And the Ki (hCA I)?
A: > 10000 nM

Q: And the Ki (hCA IX)?
A: 9.6 nM

Q: What about the Ki (hCA II) of the same compound?
A: > 10000 nM

Q: Which results are given for O=C(COc1ccc2ccc(=O)oc2c1)NNC(=S)Nc1ccc(I)cc1 [Compound 18b, N-(4-Iodophenyl)-2-(2-((2-oxo-2H-chromen-7-yl)oxy)acetyl)hydrazine-1-carbothioamide]?
A: melting point: 164 to 166 °C; Ki (hCA XII): 7.5 nM; Ki (hCA I): > 10000 nM; Ki (hCA IX): 721 nM; Ki (hCA II): > 10000 nM

Q: Which results are given for O=C(COc1ccc2oc(=O)ccc2c1)NNC(=S)Nc1cccc(I)c1 [Compound 19a, N-(3-Iodophenyl)-2-(2-((2-oxo-2H-chromen-6-yl)oxy)acetyl)hydrazine-1-carbothioamide]?
A: melting point: 144 to 146 °C; Ki (hCA XII): 79 nM; Ki (hCA I): > 10000 nM; Ki (hCA IX): 9.6 nM; Ki (hCA II): > 10000 nM

Q: Which melting point does the source give for O=C(COc1ccc2ccc(=O)oc2c1)NNC(=S)Nc1cccc(I)c1 [Compound 19b, N-(3-Iodophenyl)-2-(2-((2-oxo-2H-chromen-7-yl)oxy)acetyl)hydrazine-1-carbothioamide] here?
A: 168 to 169 °C

Q: And the Ki (hCA XII)?
A: 573 nM

Q: What about the Ki (hCA I) of the same compound?
A: > 10000 nM

Q: And the Ki (hCA IX)?
A: 9.4 nM

Q: What about the Ki (hCA II) of the same compound?
A: > 10000 nM

Q: With O=C(COc1ccc2oc(=O)ccc2c1)NNC(=S)Nc1ccc(C(F)(F)F)cc1 [Compound 20a, N-(4-(Trifluoromethyl)phenyl)-2-(2-((2-oxo-2H-chromen-6-yl)oxy)acetyl)hydrazine-1-carbothioamide] as the compound, how does the Ki (hCA XII) read?
A: 306 nM

Q: What about the Ki (hCA I) of the same compound?
A: > 10000 nM

Q: And the “fold increase of hCA IX Ki relative to the 4-iodo derivative 18a” value (hCA IX)?
A: 9.6 fold

Q: What about the Ki (hCA IX) of the same compound?
A: 92 nM

Q: What about the Ki (hCA II) of the same compound?
A: > 10000 nM

Q: Which results are given for O=C(COc1ccc2ccc(=O)oc2c1)NNC(=S)Nc1ccc(C(F)(F)F)cc1 [Compound 20b, N-(4-(Trifluoromethyl)phenyl)-2-(2-((2-oxo-2H-chromen-7-yl)oxy)acetyl)hydrazine-1-carbothioamide]?
A: Ki (hCA XII): 56.6 nM; fold more effective on hCA XII than 6-substituted counterpart (hCA XII): 5.4 fold; Ki (hCA I): > 10000 nM; fold more potent on hCA IX than 6-substituted counterpart (hCA IX): 1.3 fold; Ki (hCA IX): 70 nM; Ki (hCA II): > 10000 nM

Q: For O=C(COc1ccc2oc(=O)ccc2c1)NNC(=S)Nc1cccc([N+](=O)[O-])c1 [Compound 21a, N-(3-Nitrophenyl)-2-(2-((2-oxo-2H-chromen-6-yl)oxy)acetyl)hydrazine-1-carbothioamide], which melting point is on record?
A: 210 to 212 °C

Q: And the Ki (hCA XII)?
A: 328 nM

Q: What about the Ki (hCA I) of the same compound?
A: > 10000 nM

Q: And the Ki (hCA IX)?
A: 71 nM

Q: What about the Ki (hCA II) of the same compound?
A: > 10000 nM

Q: What does the source list for O=C(COc1ccc2ccc(=O)oc2c1)NNC(=S)Nc1cccc([N+](=O)[O-])c1 [Compound 21b, N-(3-Nitrophenyl)-2-(2-((2-oxo-2H-chromen-7-yl)oxy)acetyl)hydrazine-1-carbothioamide]?
A: melting point: 214 to 215 °C; Ki (hCA XII): 8.6 nM; fold more effective on hCA XII than 6-substituted counterpart (hCA XII): 38.2 fold; Ki (hCA I): > 10000 nM; Ki (hCA IX): 9.1 nM; Ki (hCA II): > 10000 nM

Q: For CSc1ccc(NC(=S)NNC(=O)COc2ccc3oc(=O)ccc3c2)cc1 [Compound 22a, N-(4-(Methylthio)phenyl)-2-(2-((2-oxo-2H-chromen-6-yl)oxy)acetyl)hydrazine-1-carbothioamide], which melting point is on record?
A: 148 to 150 °C

Q: And the Ki (hCA XII)?
A: 4 nM

Q: And the “fold less effective on hCA IX than on hCA XII” value (hCA XII; Ki hCA IX / Ki hCA XII)?
A: 14 fold

Q: And the Ki (hCA I)?
A: > 10000 nM

Q: What about the “fold increase of hCA IX Ki relative to the 4-iodo derivative 18a” value (hCA IX) of the same compound?
A: 5.9 fold

Q: What about the Ki (hCA IX) of the same compound?
A: 57 nM

Q: What about the Ki (hCA II) of the same compound?
A: > 10000 nM

Q: For CSc1ccc(NC(=S)NNC(=O)COc2ccc3ccc(=O)oc3c2)cc1 [Compound 22b, N-(4-(Methylthio)phenyl)-2-(2-((2-oxo-2H-chromen-7-yl)oxy)acetyl)hydrazine-1-carbothioamide], which melting point is on record?
A: 163 to 164 °C

Q: And the Ki (hCA XII)?
A: 4.6 nM

Q: What about the Ki (hCA I) of the same compound?
A: > 10000 nM

Q: What about the “fold more potent on hCA IX than 6-substituted counterpart” value (hCA IX) of the same compound?
A: 1.7 fold

Q: And the Ki (hCA IX)?
A: 33 nM

Q: What about the Ki (hCA II) of the same compound?
A: > 10000 nM

Q: With N#Cc1ccc(NC(=S)NNC(=O)COc2ccc3ccc(=O)oc3c2)cc1 [Compound 23b, N-(4-Cyanophenyl)-2-(2-((2-oxo-2H-chromen-7-yl)oxy)acetyl)hydrazine-1-carbothioamide] as the compound, how does the melting point read?
A: 224 to 226 °C

Q: What about the Ki (hCA XII) of the same compound?
A: 473 nM

Q: And the Ki (hCA I)?
A: > 10000 nM

Q: And the Ki (hCA IX)?
A: 437 nM

Q: What about the Ki (hCA II) of the same compound?
A: > 10000 nM
